pIC50: −log10 of the molar value. Values after ≈ are worked out from the molar mass of the structure shown. Structures can show the parent of a compound that is named as a salt. Where two headings read alike, the source gives them in different places.
Tests used:
[1] = target: KPC-2 (Klebsiella pneumoniae, UniProt Q9F663); experiment: In vitro enzyme inhibition assay (nitrocefin hydrolysis), KPC-2; type: biochemical
Procedure: (§1) Compound dilution was performed in DMSO.

[2] = target: OXA-48 (Klebsiella pneumoniae, UniProt Q6XEC0); experiment: In vitro enzyme inhibition assay (nitrocefin hydrolysis), OXA-48; type: biochemical
Chain of OXA-48 (Q6XEC0 23-265 limits assumed): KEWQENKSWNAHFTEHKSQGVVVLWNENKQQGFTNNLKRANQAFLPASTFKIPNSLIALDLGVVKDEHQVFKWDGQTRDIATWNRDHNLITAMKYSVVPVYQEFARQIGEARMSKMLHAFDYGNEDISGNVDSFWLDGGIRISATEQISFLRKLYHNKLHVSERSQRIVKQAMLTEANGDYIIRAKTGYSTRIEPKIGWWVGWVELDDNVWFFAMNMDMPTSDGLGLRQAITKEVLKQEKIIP
Procedure: as §1

[3] = target: TEM-1 (Escherichia coli, UniProt P62593); experiment: In vitro enzyme inhibition assay (nitrocefin hydrolysis), TEM-1; type: biochemical; conditions: nitrocefin 100 μM, band; read-out: TEM-1 mean IC50 (banded)
Chain of TEM-1 (P62593 24-286 limits assumed): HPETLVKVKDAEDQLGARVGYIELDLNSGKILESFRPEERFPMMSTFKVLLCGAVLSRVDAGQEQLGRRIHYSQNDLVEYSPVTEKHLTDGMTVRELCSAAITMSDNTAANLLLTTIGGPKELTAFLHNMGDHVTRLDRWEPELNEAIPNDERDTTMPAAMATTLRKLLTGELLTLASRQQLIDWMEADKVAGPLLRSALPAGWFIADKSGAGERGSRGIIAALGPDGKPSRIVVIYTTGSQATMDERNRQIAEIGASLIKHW
Procedure: as §1

[4] = tested on: NTBC091.1 (E. coli strain expressing KPC-2, TEM-1); experiment: Meropenem potentiation, broth micro-dilution MIC, strain NTBC091.1; type: cell-based; conditions: for MIC of meropenem + compound compared with meropenem + avibactam: NTBC091.1; for MIC mero + 4 μg/mL inhibitor (banded): NTBC091.1, MIC of meropenem with 4 μg/mL of the labelled inhibitor, band
Procedure: (§4) The experiments were carried out using the ‘broth micro-dilution method’ according to the protocols M07-A8 established by the Clinical Laboratory Standards Institute (CLSI). […] After incubation for 18-20 hours in a heating chamber at 37° C., the growth inhibition was evaluated by the absence of any bacterial development.
(§5) Compounds of the invention were tested at concentrations of 4 μg/mL.

[5] = target: T1, AmpC (Enterobacter cloacae, UniProt P05364); experiment: biochemical
T1 sequence (P05364 21-381): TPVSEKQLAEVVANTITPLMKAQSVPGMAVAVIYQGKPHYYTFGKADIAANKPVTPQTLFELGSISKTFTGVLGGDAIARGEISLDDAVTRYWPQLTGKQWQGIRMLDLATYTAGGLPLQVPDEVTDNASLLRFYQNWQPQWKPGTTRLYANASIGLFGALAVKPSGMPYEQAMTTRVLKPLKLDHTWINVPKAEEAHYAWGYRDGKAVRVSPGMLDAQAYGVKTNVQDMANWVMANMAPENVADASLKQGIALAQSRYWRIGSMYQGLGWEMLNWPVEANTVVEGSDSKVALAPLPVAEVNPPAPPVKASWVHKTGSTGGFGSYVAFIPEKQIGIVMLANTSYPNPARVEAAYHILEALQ

[6] = target: CTX-M15 (Escherichia coli, UniProt Q9EXV5); experiment: In vitro enzyme inhibition assay (nitrocefin hydrolysis), CTX-M15; type: biochemical
Chain of CTX-M15 (Q9EXV5 entry or part of it): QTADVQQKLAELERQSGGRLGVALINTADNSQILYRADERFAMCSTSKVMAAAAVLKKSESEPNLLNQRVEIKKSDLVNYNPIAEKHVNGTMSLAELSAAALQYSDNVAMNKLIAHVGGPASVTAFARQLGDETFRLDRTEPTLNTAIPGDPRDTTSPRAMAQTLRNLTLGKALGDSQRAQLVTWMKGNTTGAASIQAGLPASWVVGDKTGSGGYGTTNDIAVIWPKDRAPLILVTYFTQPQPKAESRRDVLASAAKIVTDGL
Procedure: as §1

[7] = tested on: NTBC096.1 (K. pneumoniae strain expressing OXA-181 and SHV-11); experiment: Meropenem potentiation, broth micro-dilution MIC, strain NTBC096.1; type: cell-based; conditions: for MIC: Klebsiella pneumoniae, read-out: MIC mero + 4 μg/mL inhibitor
Procedure: as §4, §5

[8] = tested on: NTBC093 (E. cloacae strain expressing KPC-2, TEM-1); experiment: Meropenem potentiation, broth micro-dilution MIC, strain NTBC093; conditions: for MIC: Enterobacter cloacae, read-out: MIC mero + 4 μg/mL inhibitor
Procedure: as §4, §5

[9] = tested on: NTBC099 (K. pneumoniae strain expressing KPC-3, SHV-11 and TEM-1); experiment: Meropenem potentiation, broth micro-dilution MIC, strain NTBC099; conditions: Klebsiella pneumoniae, read-out: MIC mero + 4 μg/mL inhibitor
Procedure: as §4, §5

[10] = tested on: NTBC189 (K. pneumoniae strain expressing TEM-OSBL(b), CTX-M-14, OXA-48(c)); experiment: Meropenem potentiation, broth micro-dilution MIC, strain NTBC189; conditions: for MIC: Klebsiella pneumoniae, read-out: MIC mero + 4 μg/mL inhibitor
Procedure: as §4, §5

[11] = target: T1, AmpC; conditions: read-out: Amp-C mean IC50 (banded); nitrocefin 100 μM, band
[12] = tested on: KPC-expressing clinical strain of Klebsiella pneumoniae (NR-48977); experiment: MIC against strain used in thigh model, NR-48977; type: cell-based
Source text: (§2) Compounds of the invention were further examined in animal efficacy models.

[13] = tested on: OXA-expressing clinical strain of Klebsiella pneumoniae (AC00783); experiment: MIC against strain used in thigh model, AC00783; type: cell-based
Source text: as §2

[14] = tested on: OXA-expressing clinical strain of Acinetobacter baumannii (AC00445); experiment: MIC against strain used in thigh model, AC00445; type: cell-based
Source text: as §2

[15] = tested on: KPC-expressing clinical strain of Klebsiella pneumoniae (NR-48977); experiment: Mouse thigh infection efficacy model, NR-48977; type: in vivo; conditions: mice, IV at 1, 3, 5 and 7 hours post infection with constant dose of meropenem, 9 hours post infection
Procedure: as §2
(§3) Vehicle, meropenem alone or meropenem and a compound of the invention (Example 10) were administered by IV at 1, 3, 5 and 7 hours post infection. 9 hours post infection animals were sacrificed and the number of colony forming units (CFUs) was measured in order to quantify bacterial burden (colony forming units per gram thigh tissue, CFU/g).

[16] = tested on: OXA-expressing clinical strain of Klebsiella pneumoniae (AC00783); experiment: Mouse thigh infection efficacy model, AC00783; type: in vivo; conditions: mice, IV at 1, 3, 5 and 7 hours post infection with constant dose of meropenem, 9 hours post infection
Procedure: as §2, §3

[17] = tested on: OXA-expressing clinical strain of Acinetobacter baumannii (AC00445); experiment: Mouse thigh infection efficacy model, AC00445; type: in vivo; conditions: mice, IV at 1, 3, 5 and 7 hours post infection with constant dose of meropenem, 9 hours post infection
Procedure: as §2, §3

[18] = tested on: panel of 48 A. baumannii strains (OXA positive clinical isolates); experiment: Cumulative MIC, panel of 48 A. baumannii strains (FIG. 3)
[19] = tested on: clinical strains of KPC positive enterobacteriaceae; conditions: FIG. 2, meropenem + 4 μg/mL inhibitor
[20] = tested on: larger panel of clinical strains of OXA positive enterobacteriaceae; experiment: Cumulative MIC, larger panel of clinical strains of OXA positive enterobacteriaceae (FIG. 1B); conditions: meropenem + 4 μg/mL inhibitor
[21] = tested on: clinical strains of OXA positive enterobacteriaceae; experiment: Cumulative MIC, panel of clinical strains of OXA positive enterobacteriaceae (FIG. 1A); conditions: antibiotic alone or clinical combination

Chain of KPC-2 (Q9F663 25-293 limits assumed): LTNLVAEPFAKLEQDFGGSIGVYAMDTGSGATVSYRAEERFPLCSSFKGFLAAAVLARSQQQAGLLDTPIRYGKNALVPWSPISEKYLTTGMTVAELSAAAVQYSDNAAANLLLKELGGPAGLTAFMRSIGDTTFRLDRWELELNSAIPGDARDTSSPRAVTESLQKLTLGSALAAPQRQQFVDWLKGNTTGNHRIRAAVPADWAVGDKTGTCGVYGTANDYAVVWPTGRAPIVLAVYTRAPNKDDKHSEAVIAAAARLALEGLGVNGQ

| SMILES | pIC50 [1] | pIC50 [2] | MIC mero + 4 μg/mL inhibitor (banded) [4] | pIC50 [5] | pIC50 [6] | other results |
| --- | --- | --- | --- | --- | --- | --- |
| O=C1N2C[C@@H](CC[C@H]2Cl)N1OS(=O)(=O)[O-].[Na+] [Example 12, Sodium (2R,5R)-2-chloro-7-oxo-1,6-diazabicyclo[3.2.1]octan-6-yl sulfate] | < 8.00 | < 6.52 | (A) (1 μg/mL) | > 8.00 | – | pIC50 [3]: > 8.52; MIC of meropenem + compound compared with meropenem + avibactam [4]: lower |
| O=C1N2C[C@@H](CC[C@H]2C(F)F)N1OS(=O)(=O)O [Example 2, Sodium (2S, 5R)-7-oxo-2-(difluoromethyl)-1,6-diazabicyclo[3.2.1]octan-6-yl sulfate] | > 8.00 | 7.00 to 7.70 | (A) (1 μg/mL) | – | 7.70 to 8.30 | MIC of meropenem + compound compared with meropenem + avibactam [4]: lower; MIC [7]: 4 µg/mL; MIC [8]: 0.06 µg/mL; MIC [9]: 1 µg/mL; MIC [10]: 2 µg/mL |
| O=C1N2C[C@@H](CC[C@H]2C(F)(F)F)N1OS(=O)(=O)O [Example 1, Sodium (2S, 5R)-7-oxo-2-(trifluoromethyl)-1,6-diazabicyclo[3.2.1]octan-6-yl sulfate] | > 8.00 | > 7.70 | (A) (1 μg/mL) | – | 7.70 to 8.30 | MIC of meropenem + compound compared with meropenem + avibactam [4]: lower; MIC [7]: 4 µg/mL; MIC [8]: 0.06 µg/mL; MIC [10]: 2 µg/mL |
| O=C1N2C[C@@H](CC[C@H]2C(Cl)Cl)N1OS(=O)(=O)O [Example 3, Sodium (2S,5R)-2-(dichloromethyl)-7-oxo-1,6-diazabicyclo[3.2.1]octan-6-yl sulfate] | > 8.00 | 6.70 to 7.00 | (A) (1 μg/mL) | 7.22 to 7.40 | 7.00 to 7.70 | – |
| O=C1N2C[C@@H](CC[C@H]2COC(F)(F)F)N1OS(=O)(=O)[O-].[Na+] [Example 8, Sodium (2S, 5R)-7-oxo-2-[(trifluoromethoxy)methyl]-1,6-diazabicyclo[3.2.1]octan-6-yl sulphate] | > 8.00 | 6.52 to 6.70 | (A) (1 μg/mL) | 7.22 to 7.40 | 6.70 to 7.00 | – |
| NC(=O)[C@@H]1CC[C@@H]2CN1C(=O)N2OS(=O)(=O)O [Avibactam, avibactam, reference compound] | – | – | A (1 μg/mL) | – | – | pIC50 ([6]; nitrocefin 50 μM, band, read-out: CTX-M15 mean IC50 (banded)): > 8.30; MIC mero + 4 μg/mL inhibitor (banded) ([7]; NTBC096.1, MIC of meropenem with 4 μg/mL of the labelled inhibitor, band): B (MIC=1 or 2 μg/mL); pIC50 [11]: > 8.00; MIC mero + 4 μg/mL inhibitor (banded) ([8]; NTBC093, MIC of meropenem with 4 μg/mL of the labelled inhibitor, band): A (1 μg/mL); MIC mero + 4 μg/mL inhibitor ([8]; NTBC093, MIC of meropenem with 4 μg/mL of the labelled inhibitor, value): 0.03 µg/mL; MIC mero + 4 μg/mL inhibitor (banded) ([10]; NTBC189, MIC of meropenem with 4 μg/mL of the labelled inhibitor, band): A (1 μg/mL) |
| CC(F)(F)[C@@H]1CC[C@@H]2CN1C(=O)N2OS(=O)(=O)[O-].[Na+] [Example 5, Sodium (2S, 5R)-2-(1,1-difluoroethyl)-7-oxo-1,6-diazabicyclo[3.2.1]octan-6-yl sulphate] | < 8.00 | 7.00 to 7.70 | (A) (1 μg/mL) | 7.22 to 7.40 | 7.70 to 8.30 | – |
| O=C1N2C[C@@H](CC[C@H]2F)N1OS(=O)(=O)[O-].[Na+] [Example 10, Sodium (2R,5R)-2-fluoro-7-oxo-1,6-diazabicyclo[3.2.1]octan-6-yl sulfate] | < 8.00 | 6.52 to 6.70 | (A) (1 μg/mL) | 7.40 to 8.00 | – | pIC50 [3]: > 8.52; MIC of meropenem + compound compared with meropenem + avibactam [4]: lower; MIC of meropenem + compound compared with meropenem + avibactam ([7]; NTBC096.1): lower; MIC (Meropenem + inhibitor at 4 μg/mL) ([12]; NR-48977): 1 µg/mL; MIC (Meropenem + inhibitor at 4 μg/mL) [13]: 0.25 µg/mL; MIC (Meropenem + inhibitor at 4 μg/mL) ([14]; AC00445): 4 µg/mL; bacterial burden (colony forming units per gram thigh tissue) [15]: dose response; bacterial burden (colony forming units per gram thigh tissue) [16]: dose response; bacterial burden (colony forming units per gram thigh tissue) [17]: dose response; % of the strains susceptible ([18]; FIG. 3, in the presence of 2 μg/mL of each inhibitor, inhibitor in combination with meropenem): around 50%; % of the strains susceptible ([18]; FIG. 3, in the presence of 16 μg/mL of each inhibitor, inhibitor in combination with meropenem): ~100%; MIC90 of meropenem with addition of 4 μg/mL of inhibitor ([18]; FIG. 3, meropenem + 4 μg/mL inhibitor): 8 µg/mL; MIC of meropenem + compound compared with meropenem + avibactam ([8]; NTBC093): similar; MIC of meropenem + compound compared with meropenem + avibactam ([10]; NTBC189): lower; MIC50 of meropenem with addition of 4 μg/mL of inhibitor [19]: 0.12 µg/mL; MIC50 of meropenem with addition of 4 μg/mL of inhibitor [20]: 0.12 µg/mL; MIC90 of meropenem with addition of 4 μg/mL of inhibitor [20]: 0.5 µg/mL |
| O=C1N2C[C@@H](CC[C@H]2CCl)N1OS(=O)(=O)[O-].[Na+] [Example 6, Sodium (2S, 5R)-2-(chloromethyl)-7-oxo-1,6-diazabicyclo[3.2.1]octan-6-yl sulphate] | < 8.00 | 6.52 to 6.70 | (A) (1 μg/mL) | 7.40 to 8.00 | – | – |
| O=C1N2C[C@@H](CC[C@H]2CF)N1OS(=O)(=O)[O-].[Na+] [Example 4, Sodium (2S, 5R)-2-(fluoromethyl)-7-oxo-1,6-diazabicyclo[3.2.1]octan-6-yl sulphate] | < 8.00 | 6.52 to 6.70 | (A) (1 μg/mL) | > 8.00 | 7.70 to 8.30 | – |
| C[C@@H](O)[C@H]1C(=O)N2C(C(=O)O)=C(S[C@@H]3CN[C@H](C(=O)N(C)C)C3)[C@H](C)[C@H]12 [meropenem, reference compound] | – | – | – | – | – | MIC ([12]; Klebsiella pneumoniae, read-out: MIC (meropenem alone)): 64 µg/mL (≈ 167 µM); MIC ([14]; Acinetobacter baumannii, read-out: MIC (meropenem alone)): 64 µg/mL (≈ 167 µM); % of the strains susceptible ([18]; FIG. 3, in the presence of 2 μg/mL of each inhibitor, antibiotic alone or clinical combination): 0%; fraction of strains susceptible at an MIC of 1 μg/mL [21]: 0% |
| O=C1N2C[C@@H](CC[C@@H]2F)N1OS(=O)(=O)[O-].[Na+] [Example 11, Sodium (2S, 5R)-2-fluoro-7-oxo-1,6-diazabicyclo [3.2.1]octan-6-yl sulfate] | < 8.00 | < 6.52 | (A) (1 μg/mL) | < 7.22 | – | pIC50 [3]: < 8.00 |
| O=C1N2C[C@@H](CC[C@H]2C(F)(F)c2nccs2)N1OS(=O)(=O)[O-].[Na+] [Example 9, Sodium (2S, 5R)-2-[difluoro(1,3-thiazol-2-yl)methyl]-7-oxo-1,6-diazabicyclo[3.2.1]octan-6-yl sulphate] | > 8.00 | 6.52 to 6.70 | (A) (1 μg/mL) | > 8.00 | 7.00 to 7.70 | – |
| O=C1N2C[C@@H](CC[C@H]2SC(F)(F)F)N1OS(=O)(=O)[O-].[Na+] [Example 7, Sodium (2R, 5R)-7-oxo-2-[(trifluoromethyl)sulfanyl]-1,6-diazabicyclo[3.2.1]octan-6-yl sulphate] | < 8.00 | 6.52 to 6.70 | (A) (1 μg/mL) | 7.22 to 7.40 | – | – |
